From PMC8497620, “Structure and inhibition of Cryptococcus neoformans sterylglucosidase to develop antifungal agents” (Nature Communications, 2021)
Values joined by “and” are separate entries in the source; they are usually repeats but may differ in a detail not shown here. Equal entries are not always repeated. “Also recorded” adds a separate entry of the source. Where two headings read alike, the source gives them in different places.

Columns and labels:
[1] = target: C. neoformans Sgl1 (Cryptococcus neoformans var. grubii, UniProt J9W473); test: Sgl1 inhibition with res-glp substrate (HTS, single-compound dose-response); type: biochemical; settings: for inhibition at 0.125 µM: read-out: % Sgl1 Inhibition, 0.125 µM compound; for inhibition at 0.125 µM / inhibition at 0.5 µM / inhibition at 1 µM / inhibition at 2 µM / inhibition at 4 µM / inhibition at 8 µM / inhibition at […] / % Sgl1 Inhibition: substrate resorufin 3β-D-glucopyranoside (100 µM); for inhibition at 0.5 µM: read-out: % Sgl1 Inhibition, 0.5 µM compound; for inhibition at 1 µM: read-out: % Sgl1 Inhibition, 1 µM compound; for inhibition at 2 µM: read-out: % Sgl1 Inhibition, 2 µM compound; for inhibition at 4 µM: read-out: % Sgl1 Inhibition, 4 µM compound; for inhibition at 8 µM: read-out: % Sgl1 Inhibition, 8 µM compound; for inhibition at […]: read-out: % Sgl1 Inhibition, […] compound; for IC50: res-glp as substrate (100 µM), primary screen, read-out: IC50 against Sgl1
Chain of C. neoformans Sgl1 (J9W473 entry or part of it): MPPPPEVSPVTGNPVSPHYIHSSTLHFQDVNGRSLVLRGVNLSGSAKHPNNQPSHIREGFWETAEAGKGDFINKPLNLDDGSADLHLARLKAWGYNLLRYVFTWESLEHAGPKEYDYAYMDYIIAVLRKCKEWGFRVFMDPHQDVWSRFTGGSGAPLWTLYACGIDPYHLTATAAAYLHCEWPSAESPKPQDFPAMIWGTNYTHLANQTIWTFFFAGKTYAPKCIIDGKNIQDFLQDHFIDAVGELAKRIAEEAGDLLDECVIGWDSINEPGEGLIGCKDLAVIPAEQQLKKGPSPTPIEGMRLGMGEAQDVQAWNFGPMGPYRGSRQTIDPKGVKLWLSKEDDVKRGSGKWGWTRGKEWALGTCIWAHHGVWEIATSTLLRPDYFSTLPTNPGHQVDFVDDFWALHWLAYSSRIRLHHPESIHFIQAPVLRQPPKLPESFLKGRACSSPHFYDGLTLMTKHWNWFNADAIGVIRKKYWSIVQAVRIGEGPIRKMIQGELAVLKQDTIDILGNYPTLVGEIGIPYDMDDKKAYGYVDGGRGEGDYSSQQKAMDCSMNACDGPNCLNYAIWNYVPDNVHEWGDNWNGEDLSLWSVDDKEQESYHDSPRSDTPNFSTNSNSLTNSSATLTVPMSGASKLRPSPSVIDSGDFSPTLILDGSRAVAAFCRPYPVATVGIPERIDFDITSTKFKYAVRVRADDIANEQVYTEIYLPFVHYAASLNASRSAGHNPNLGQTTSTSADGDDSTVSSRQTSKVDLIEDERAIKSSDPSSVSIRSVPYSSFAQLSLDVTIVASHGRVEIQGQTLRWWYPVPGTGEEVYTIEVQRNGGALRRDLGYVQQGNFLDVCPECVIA

[2] = target: T1, Cerezyme (human glucosylceramidase) (Homo sapiens, UniProt P04062, R534H); test: Effect on Cerezyme activity with res-glp substrate; type: biochemical; settings: substrate resorufin 3β-D-glucopyranoside (100 µM)
T1 construct: purchased Genzyme Corporation, Cambridge, MA, USA
T1 sequence (P04062 40-536 R534H): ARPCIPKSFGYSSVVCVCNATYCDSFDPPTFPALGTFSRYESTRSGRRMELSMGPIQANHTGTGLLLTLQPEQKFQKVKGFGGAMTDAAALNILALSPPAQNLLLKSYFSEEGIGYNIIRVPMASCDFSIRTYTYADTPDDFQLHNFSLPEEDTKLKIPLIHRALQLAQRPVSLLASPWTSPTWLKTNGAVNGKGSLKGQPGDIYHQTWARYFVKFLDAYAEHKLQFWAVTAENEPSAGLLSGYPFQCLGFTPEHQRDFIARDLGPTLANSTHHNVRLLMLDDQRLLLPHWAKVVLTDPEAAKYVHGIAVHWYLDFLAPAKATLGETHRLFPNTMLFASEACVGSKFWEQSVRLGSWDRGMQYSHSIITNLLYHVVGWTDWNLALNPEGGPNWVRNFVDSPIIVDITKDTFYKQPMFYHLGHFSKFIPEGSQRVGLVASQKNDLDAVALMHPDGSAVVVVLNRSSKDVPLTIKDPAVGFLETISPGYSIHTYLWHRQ
Description: Resorufin-3β-D-glucopyranoside (res-glp, Sigma-Aldrich) enzyme kinetic assays were performed according to methods described by Urban et al.[16] with modifications. Reaction buffer contained 50 mM citric acid, 176 mM K2HPO4, pH 6, 0.01% Tween-20, and 10 mM sodium taurocholate. The reactions were carried out in black 96-well plates using 20 ng of enzyme with 100 μM res-glp substrate. In all, 10 μL/well of res-glp substrate was added to each well and the reaction was initiated by adding 20 μL enzyme (20 ng). After incubation at 37 °C for 30–40 min, the fluorescence was read at an excitation of 570 (±10) nm and an emission of 610 (±10) nm on a VersaMax™ Microplate Reader from Molecular Devices. A standard curve was prepared with serial dilutions of the free fluorophore, resorufin, in the same volume of assay buffer. All reactions were linear with respect to time and protein concentration and the pH, temperature, and dimethyl sulfoxide (DMSO) optimal tolerance was verified.
The Z′-factor was used for the assessment of the efficiency of the HTS assay for each individual plate. Values greater than 0.5 has been considered as an indicator of an excellent screening assay quality. […] The top three hits identified were re-tested in serial dilution against Sgl1 and cerezyme.

[3] = test system: human lung epithelial cancer cell line A549; settings: LD50 A549 / IC50 Sgl1
Description: The cells were maintained in Dulbecco’s modified eagle medium containing 10% fetal bovine serum and 1% penicillin–streptomycin. At passage 11, 10^5 cells were transferred into each well of 96-well plates and cultured for 18–24 h for the cells to adhere to the well surface. After, the medium was removed and a fresh medium containing the selected compounds at a concentration range of 1–512 μM were added to the wells. Controls with equivalent serial concentrations of DMSO were also evaluated and compared with a control without DMSO. The plate was incubated at 37 °C with 5% CO2. After 24 h, the supernatant was removed and 50 μL of 5 mg/mL 3-(4,5-dimethylthiazol-2-yl)-2,5-diphenyltetrazoliumbromide (MTT) solution in phosphate-buffered saline (PBS) was added to each well. The plates were incubated for an additional 4 h and the formazan crystals formed inside the cell was dissolved by adding 50 μL DMSO.

[4] = test system: C. neoformans H99; test: Growth inhibition assay (YNB, 1% glucose, sealed plates, limited oxygen); type: cell-based, Cryptococcus neoformans; settings: 37 °C, 72 h
Description: Five microliters containing 100 cells of C. neoformans H99 were inoculated in solid YNB media without amino acids plus 1% w/v glucose. Plates were then sealed with clear polyolefin sealing tape (ThermoFisher) and incubated at 37 °C for 72 h. Hits 1, 9, and 15 were added to the media at concentrations of 10 and 50 µM. H99, Δsgl1, and Δsgl1 + SGL1 strains were used as controls without compounds.

SMILES | inhibition at 0.125 µM [1] | inhibition at 0.5 µM [1] | inhibition at 1 µM [1] | inhibition at 2 µM [1] | inhibition at 4 µM [1] | inhibition at 8 µM [1] | inhibition at […] [1] | IC50 [1] | % Cerezyme Inhibition ([2]; 12.5427 µM compound) | % Cerezyme Inhibition ([2]; 25.0854 µM compound) | inhibition at 25.0854 µM ([2]; 25.0854 µM compound) | % Cerezyme Inhibition ([2]; 50.1708 µM compound) | inhibition at 50.1708 µM ([2]; 50.1708 µM compound) | inhibition at 100.342 µM ([2]; 100.342 µM compound) | % Cerezyme Inhibition ([2]; 200.683 µM compound) | inhibition at 200.683 µM ([2]; 200.683 µM compound) | inhibition at 401.367 µM ([2]; 401.367 µM compound) | inhibition at 800 µM ([2]; 800 µM compound) | selectivity index (SI = LD50/IC50) [3] | growth of wild-type C. neoformans ([4]; 50 µM) | other results
COc1cccc(-c2ncc(CN3CCC(O)(CO)CC3)s2)c1 [Hit 1] | 0% | 14% | 45.8% | 56.1% | 74% | 90.2% | 0% | ~1000 nM and 1000 nM | 4.937% and 1.065% | 6.583% | 7.34% | 7.795% | 8.81% | 9.86% | 9.338% | 9.63% | 9.86% | 10.5% | > 500 | inhibit growth similarly to C. neoformans Δsgl1; also recorded: lack of growth | % Cerezyme Inhibition ([2]; 800 µM compound): 12.9786%
CN1C[C@@H](NC(=O)Cc2ccc3c(c2)NC(=O)CO3)C[C@@H]1CO [Hit 9] | 57.2% | 84% | 91.3% | 95.5% | 97.5% | 98.6% | 73.1% | ~1000 nM | 0.6044% | 2.143% | 2.64% | 6.259% | 5.68% | 6.87% | 9.927% | 9.82% | 14.1% | 16.7% | > 500 | inhibit growth similarly to C. neoformans Δsgl1; also recorded: lack of growth | % Sgl1 Inhibition ([1]; 0.125 µM compound): 56.0175% and 54.9266% and 54.4568%; % Sgl1 Inhibition ([1]; 0.5 µM compound): 83.3956% and 82.99% and 82.7099%; % Sgl1 Inhibition ([1]; 1 µM compound): 91.001% and 90.7947% and 90.4821%; % Sgl1 Inhibition ([1]; 2 µM compound): 95.2753% and 95.0933% and 95.0009%; % Sgl1 Inhibition ([1]; 4 µM compound): 97.4258% and 97.3045% and 97.2378%; % Sgl1 Inhibition ([1]; 8 µM compound): 98.6119% and 98.5721% and 98.4808%; inhibition at 12.5427 µM ([2]; 12.5427 µM compound): 1.03%; % Cerezyme Inhibition ([2]; 100.342 µM compound): 7.029%; % Cerezyme Inhibition ([2]; 401.367 µM compound): 12.2165%; growth of wild-type C. neoformans ([4]; 10 µM): abrogated C. neoformans growth
CC(C)c1nc(N[C@@H]2C[C@@H](CO)N(C)C2)c2cnn(C)c2n1 [Hit 15] | 10.2% | 27.9% | 40.8% | 59.6% | 76.4% | 85.5% | 14.9% | ~1000 nM and 1000 nM | – | 1.771% | 1.74% | 3.823% | 2.11% | 5.46% | 6.666% | 9.37% | 13.2% | 16.6% | > 500 | inhibit growth similarly to C. neoformans Δsgl1; also recorded: lack of growth | % Sgl1 Inhibition ([1]; 0.125 µM compound): 9.082% and 9.377% and 8.377%; % Sgl1 Inhibition ([1]; 0.5 µM compound): 26.2814% and 26.2434% and 24.9511%; % Sgl1 Inhibition ([1]; 1 µM compound): 39.5402% and 38.9055% and 37.6785%; % Sgl1 Inhibition ([1]; 2 µM compound): 58.3844% and 57.9199% and 56.5095%; % Sgl1 Inhibition ([1]; 4 µM compound): 75.564% and 74.8313% and 74.139%; % Sgl1 Inhibition ([1]; 8 µM compound): 85.0771% and 84.7714% and 84.105%; inhibition at 12.5427 µM ([2]; 12.5427 µM compound): 0%; % Cerezyme Inhibition ([2]; 100.342 µM compound): 6.414%; % Cerezyme Inhibition ([2]; 401.367 µM compound): 12.8892%; % Cerezyme Inhibition ([2]; 800 µM compound): 12.1079%; selectivity index (SI = LD50/IC50) ([3]; listed as 15): > 512; growth of wild-type C. neoformans ([4]; 10 µM): abrogated C. neoformans growth
